Data as given in US11826351B2, “Compounds useful as kinase inhibitors” (Loxo Oncology, Inc., priority 2015, dated 2023).
Like-named read-outs stand apart in the source and are kept apart here.

Key:
[1] = molecular target: T1, Recombinant BTK^WT kinase (Homo sapiens, UniProt Q06187); assay: BTK WT binding affinity (LanthaScreen TR-FRET); conditions: Kinase Tracer 236, 5 h incubation
T1 construct: purchased Invitrogen
Summary of the method: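 Tracer-displacement TR-FRET: 2.5 nM recombinant BTK^WT, 2 nM Eu anti-His antibody and 15 nM Kinase Tracer 236 incubated with varying inhibitor concentrations for 5 h in Kinase Buffer A. Signal read at 340 nm excitation, 615/665 nm emission; IC50 from variable-slope log[inhibitor]–response fit.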

[2] = molecular target: T2, Recombinant BTK^C481S kinase (Homo sapiens, UniProt Q06187, C481S); assay: BTK C481S binding affinity (LanthaScreen TR-FRET); conditions: Kinase Tracer 236, 5 h incubation
T2 construct: purchased SignalChem
Summary of the method: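 BTK C481S tracer-displacement TR-FRET: 5 nM His-tagged kinase, 2 nM Eu anti-His antibody and 30 nM Kinase Tracer 236 incubated with titrated inhibitor for 5 h in Kinase Buffer A. Read at 340 nm excitation, 615/665 nm emission; IC50 from variable-slope log[inhibitor]–response fit.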

Recombinant EGFR = molecular target: T3, Recombinant EGFR (Homo sapiens, UniProt P00533); assay: EGFR binding affinity (LanthaScreen TR-FRET); conditions: Kinase Tracer 199, 5 h incubation
T3 construct: purchased Invitrogen
Summary of the method: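 TR-FRET binding (LanthaScreen) with recombinant EGFR; signal measured across a compound concentration range. IC50 obtained by fitting RFU against log[inhibitor] to a variable-slope model.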

[3] = system: OCI-Ly10 human DLBCL cells; assay: OCI-Ly10 anti-proliferative activity (Resazurin); type: cell-based; conditions: OCI-Ly10 cells, 72 h compound treatment, Resazurin, read-out: Proliferation Assay OCI-Ly10-20% FBS
Summary of the method: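 OCI-Ly10 human DLBCL cells, whose growth depends on NFκB signalling, were seeded at 7.5×10^3 cells per well in 96-well plates with a range of compound concentrations and kept at 37° C for 72 h. Resazurin was then added, and after 5 h fluorescence was read at 590 nm.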

T1 sequence (Q06187 whole entry): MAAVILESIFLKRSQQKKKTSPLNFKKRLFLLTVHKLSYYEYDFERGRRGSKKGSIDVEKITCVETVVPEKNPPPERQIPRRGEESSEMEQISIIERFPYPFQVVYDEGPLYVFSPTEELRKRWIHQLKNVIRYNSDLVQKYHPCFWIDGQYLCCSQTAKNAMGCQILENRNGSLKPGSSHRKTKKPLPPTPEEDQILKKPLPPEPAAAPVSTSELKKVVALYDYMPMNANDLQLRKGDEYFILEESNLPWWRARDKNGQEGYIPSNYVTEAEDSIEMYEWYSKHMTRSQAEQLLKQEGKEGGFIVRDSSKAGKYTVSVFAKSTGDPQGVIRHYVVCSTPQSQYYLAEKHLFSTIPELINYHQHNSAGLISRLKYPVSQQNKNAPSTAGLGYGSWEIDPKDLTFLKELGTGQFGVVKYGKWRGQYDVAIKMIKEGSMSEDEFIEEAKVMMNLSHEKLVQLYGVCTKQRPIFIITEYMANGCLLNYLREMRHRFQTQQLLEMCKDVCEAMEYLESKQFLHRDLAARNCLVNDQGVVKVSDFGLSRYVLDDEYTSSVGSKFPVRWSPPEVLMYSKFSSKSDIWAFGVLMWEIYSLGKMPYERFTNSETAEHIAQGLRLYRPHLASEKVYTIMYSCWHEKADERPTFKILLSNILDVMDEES
T2 sequence (Q06187 whole entry C481S): as the sequence (Q06187 whole entry) above, with C481S counted along it
T3 sequence (P00533 25-1210): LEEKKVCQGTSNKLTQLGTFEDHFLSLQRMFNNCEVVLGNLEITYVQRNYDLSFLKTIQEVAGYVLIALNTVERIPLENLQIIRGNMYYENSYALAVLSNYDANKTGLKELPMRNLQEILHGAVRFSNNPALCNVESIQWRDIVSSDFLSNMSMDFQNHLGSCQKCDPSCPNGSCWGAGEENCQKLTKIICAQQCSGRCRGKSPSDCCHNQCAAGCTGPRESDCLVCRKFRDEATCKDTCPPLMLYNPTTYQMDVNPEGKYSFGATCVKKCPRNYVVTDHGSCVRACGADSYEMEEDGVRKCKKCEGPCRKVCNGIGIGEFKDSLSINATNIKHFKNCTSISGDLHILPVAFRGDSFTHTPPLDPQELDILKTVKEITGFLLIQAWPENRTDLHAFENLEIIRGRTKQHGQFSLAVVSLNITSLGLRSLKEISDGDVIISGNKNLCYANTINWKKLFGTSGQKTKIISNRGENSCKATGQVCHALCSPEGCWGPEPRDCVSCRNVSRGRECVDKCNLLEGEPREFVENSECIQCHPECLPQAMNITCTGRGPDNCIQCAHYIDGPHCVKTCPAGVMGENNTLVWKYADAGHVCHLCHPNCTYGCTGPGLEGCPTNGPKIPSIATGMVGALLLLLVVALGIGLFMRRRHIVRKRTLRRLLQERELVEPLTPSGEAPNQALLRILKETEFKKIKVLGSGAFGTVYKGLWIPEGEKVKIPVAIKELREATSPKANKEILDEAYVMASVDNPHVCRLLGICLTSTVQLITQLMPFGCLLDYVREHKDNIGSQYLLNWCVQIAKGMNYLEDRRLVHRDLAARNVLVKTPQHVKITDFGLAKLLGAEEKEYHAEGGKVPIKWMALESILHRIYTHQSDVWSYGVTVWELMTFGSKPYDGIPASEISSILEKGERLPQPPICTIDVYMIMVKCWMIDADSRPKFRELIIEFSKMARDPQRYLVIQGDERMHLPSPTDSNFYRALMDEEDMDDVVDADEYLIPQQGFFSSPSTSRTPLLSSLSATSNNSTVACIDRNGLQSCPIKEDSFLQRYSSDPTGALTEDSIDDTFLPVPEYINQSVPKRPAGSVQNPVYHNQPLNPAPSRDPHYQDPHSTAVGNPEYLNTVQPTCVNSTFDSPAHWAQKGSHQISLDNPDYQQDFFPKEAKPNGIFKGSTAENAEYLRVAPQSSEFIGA

IC50 [1] [nM] | IC50 [2] [nM] | IC50 (Recombinant EGFR) [nM] | IC50 ([3]; Homo sapiens, OCI-Ly10, 72 h) [nM] | IC50 [3] [nM] | SMILES
< 10 | < 10 | > 10000 | 10 to 100 |  | COc1ccc(F)cc1C(=O)NCc1ccc(-c2nn(C3CCCOC3)c(N)c2C(N)=O)c(F)c1 (centres unmarked) [Example 107, 5-amino-3-[2-fluoro-4-[[(5-fluoro-2-methoxy-benzoyl)amino]methyl]phenyl]-1-tetrahydropyran-3-yl-pyrazole-4-carboxamide]
10 to 100 | < 10 | 1000 to 10000 | 100 to 1000 |  | CCC(n1nc(-c2ccc(CNC(=O)c3ccccc3OC)cc2)c(C(N)=O)c1N)C(F)(F)F (centres unmarked) [Example 170, 5-amino-3-[4-[[(2-methoxybenzoyl)amino]methyl]phenyl]-1-[1-(trifluoromethyl)propyl]pyrazole-4-carboxamide]
10 to 100 | 10 to 100 | > 10000 | 1000 to 10000 |  | COc1ccccc1C(=O)NCc1ccc(-c2nn(C3CCCC3)c(N)c2C(N)=O)cn1 [Example 134, 5-amino-1-cyclopentyl-3-[6-[[(2-methoxybenzoyl)amino]methyl]-3-pyridyl]pyrazole-4-carboxamide]
< 10 | < 10 | 1000 to 10000 | 10 to 100 |  | COc1ccccc1C(=O)NCc1ccc(-c2nn(C3CCCC3F)c(N)c2C(N)=O)cc1 (centres unmarked) [Example 103, 5-amino-1-(2-fluorocyclopentyl)-3-[4-[[(2-methoxybenzoyl)amino]methyl]phenyl]pyrazole-4-carboxamide]
10 to 100 | < 10 | 1000 to 10000 | 1000 to 10000 |  | COc1ccccc1C(=O)NCc1ccc(-c2nn(C(CO)CCl)c(N)c2C(N)=O)cc1 (centres unmarked) [Example 66, 5-amino-1-[1-(chloromethyl)-2-hydroxy-ethyl]-3-[4-[[(2-methoxybenzoyl)amino]methyl]phenyl]pyrazole-4-carboxamide]
10 to 100 | < 10 | 1000 to 10000 | 100 to 1000 |  | COc1ccc(F)cc1C(=O)NCc1ccc(-c2nn(C3CCOC3)c(N)c2C(N)=O)c(F)c1F (centres unmarked) [Example 182, 5-amino-3-[2,3-difluoro-4-[[(5-fluoro-2-methoxy-benzoyl)amino]methyl]phenyl]-1-tetrahydrofuran-3-yl-pyrazole-4-carboxamide]
10 to 100 | 10 to 100 | > 10000 | 100 to 1000 |  | COc1ccccc1C(=O)NCc1ccc(-c2nn(C)c(N)c2C(N)=O)cc1 [Example 30, 5-Amino-3-[4-[[(2-methoxybenzoyl)amino]methyl]phenyl]-1-methyl-pyrazole-4-carboxamide]
< 10 | < 10 | 100 to 1000 |  | 10 to 100 | COc1ccccc1C(=O)NCc1ccc(-c2nn(C3CCC(O)CC3)c(N)c2C(N)=O)cc1 (single isomer, unassigned) [Example 34a, 5-Amino-1-(4-hydroxycyclohexyl)-3-[4-[[(2-methoxybenzoyl)amino]methyl]phenyl]pyrazole-4-carboxamide]
< 10 | < 10 | 1000 to 10000 | 10 to 100 |  | COc1ccc(F)cc1C(=O)NCc1ccc(-c2nn(C3CCCC3)c(N)c2C(N)=O)c(F)c1 [Example 136, 5-amino-1-cyclopentyl-3-[2-fluoro-4-[[(5-fluoro-2-methoxy-benzoyl)amino]methyl]phenyl]pyrazole-4-carboxamide]
10 to 100 | 10 to 100 | 1000 to 10000 | 1000 to 10000 |  | COc1ccccc1C(=O)NCc1ccc(-c2nn(CCC#N)c(N)c2C(N)=O)cc1 [Example 11, 5-Amino-1-(2-cyanoethyl)-3-[4-[[(2-methoxybenzoyl)amino]methyl]phenyl]pyrazole-4-carboxamide]
10 to 100 | < 10 | 1000 to 10000 | 100 to 1000 |  | COc1ccccc1C(=O)NCc1ccc(-c2nn(C3CC(C)(C)OC(C)(C)C3)c(N)c2C(N)=O)cc1 [Example 90, 5-amino-3-[4-[[(2-methoxybenzoyl)amino]methyl]phenyl]-1-(2,2,6,6-tetramethyltetrahydropyran-4-yl)pyrazole-4-carboxamide]
10 to 100 | < 10 | > 10000 | 100 to 1000 |  | COc1ccccc1C(=O)NCc1ccc(-c2nn(C3CCCC3)c(N)c2C(N)=O)c(C)c1 [Example 101, 5-amino-1-cyclopentyl-3-[4-[[(2-methoxybenzoyl)amino]methyl]-2-methyl-phenyl]pyrazole-4-carboxamide]
10 to 100 | < 10 | > 10000 | 100 to 1000 |  | COc1ccccc1C(=O)NCc1ccc(-c2nn(C3CCOCC3)c(N)c2C(N)=O)c(F)c1F [Example 141, 5-amino-3-[2,3-difluoro-4-[[(2-methoxybenzoyl)amino]methyl]phenyl]-1-tetrahydropyran-4-yl-pyrazole-4-carboxamide]
< 10 | < 10 | 1000 to 10000 | 10 to 100 |  | COC(=O)c1ccc(-n2nc(-c3ccc(CNC(=O)c4ccccc4OC)cc3)c(C(N)=O)c2N)cc1 [Example 45, Methyl 4-[5-amino-4-carbamoyl-3-[4-[[(2-methoxybenzoyl)amino]methyl]phenyl]pyrazol-1-yl]benzoate]
< 10 | < 10 | 1000 to 10000 | 10 to 100 |  | COc1ccc(F)cc1C(=O)NCc1ccc(-c2nn(C(C)C(F)(F)F)c(N)c2C(N)=O)cc1 (centres unmarked) [Example 120, 5-amino-3-[4-[[(5-fluoro-2-methoxy-benzoyl)amino]methyl]phenyl]-1-(2,2,2-trifluoro-1-methyl-ethyl)pyrazole-4-carboxamide]
10 to 100 | < 10 | 1000 to 10000 | 100 to 1000 |  | COc1ccc(F)cc1C(=O)NCc1ccc(-c2nn(C(CCO)C(F)F)c(N)c2C(N)=O)cc1 (centres unmarked) [Example 193, 5-Amino-1-[1-(difluoromethyl)-3-hydroxy-propyl]-3-[4-[[(5-fluoro-2-methoxy-benzoyl)amino]methyl]phenyl]pyrazole-4-carboxamide]
10 to 100 | < 10 | 1000 to 10000 | 100 to 1000 |  | COc1ccccc1C(=O)NCc1ccc(-c2nn(C(C(C)C)C(F)(F)F)c(N)c2C(N)=O)cc1 (centres unmarked) [Example 171, 5-amino-3-[4-[[(2-methoxybenzoyl)amino]methyl]phenyl]-1-[2-methyl-1-(trifluoromethyl)propyl]pyrazole-4-carboxamide]
